Test results reported in publication PMC4519322 (PLoS Pathogens, 2015).
Where two headings read alike, the source gives them in different places.

Key:
A/WSN/1933 (H1N1) virus = assay: microbe, parasite or virus in culture; format: cell-based, influenza A virus; settings: for IC50 / IC90: Influenza A virus
in vitro = settings: dog, CC50 (50% cytotoxicity concentration), MDCK cells, WST-1 assay
[1] = in vivo; cited from earlier work
[2] = tested on: recombinant wild-type WSN (rWSN); assay: microbe, parasite or virus in culture; format: cell-based; settings: Influenza A virus, H1N1 / WSN, read-out: IC50 (μM) WT rWSM (H1N1)
A/Udorn/307/1972 (H3N2) = assay: microbe, parasite or virus in culture; format: cell-based; settings: Influenza A virus, H3N2, MDCK
NP-Flag = NP-Flag (Influenza A virus, UniProt P15682); format: binding
[3] = tested on: A/California/7/2009 virus (H1N1); assay: microbe, parasite or virus in culture; format: cell-based; settings: Influenza A virus, H1N1, MDCK
A/Anhui/1/2013(H7N9) = assay: microbe, parasite or virus in culture; format: cell-based; settings: Influenza A virus, H7N9, MDCK
A/Germany/N/1949 (H10N7) = assay: microbe, parasite or virus in culture; format: cell-based; settings: Influenza A virus, MDCK
[4] = tested on: virus life cycle in MDCK cells; format: cell-based
viral protein expression = format: cell-based
[5] = tested on: A/Alberta/60/1976 (H12N5); assay: microbe, parasite or virus in culture; format: cell-based; settings: Influenza A virus, MDCK
vRNP activity = vRNP activity (Influenza A virus, UniProt P15682); format: cell-based, influenza A/WSN/1933 (H1N1)
NP-NP interaction = NP-NP interaction (Influenza A virus, UniProt P15682); format: biochemical
NP-RNA interaction = NP-RNA interaction (Influenza A virus, UniProt P15682); format: biochemical
NP = NP (Influenza A virus, UniProt P15682); format: cell-based, A/WSN/1933 (H1N1)
CRM1 binding to NP = CRM1 binding to NP (Influenza A virus, UniProt P15682); format: biochemical
[6] = mouse plasma
[7] = tested on: A/Astrakhan/263/1982 (H14N15); assay: microbe, parasite or virus in culture; format: cell-based; settings: Influenza A virus, MDCK
in vivo = settings: Balb/c, mouse, 10 mg/kg
[8] = tested on: A/Massachusetts/3740/1965 (H6N2); assay: microbe, parasite or virus in culture; format: cell-based; settings: Influenza A virus, H6N2, MDCK
[9] = biological target: vRNA-induced NP oligomerization (Influenza A virus, UniProt P15682); format: biochemical
[10] = tested on: A/Ck/yamaguchi/7/2004 (H5N1); assay: microbe, parasite or virus in culture; format: cell-based; settings: Influenza A virus, H5N1, MDCK
[11] = tested on: Influenza A/WSN/1933 (H1N1) virus; format: cell-based
A/England/1/1956 (H11N6) = assay: microbe, parasite or virus in culture; format: cell-based; settings: Influenza A virus, MDCK
A/Tex/131 (H3N2) = assay: microbe, parasite or virus in culture; format: cell-based; settings: Influenza A virus, H3N2, MDCK
[12] = tested on: vRNA encoding the PB2 subunit; format: cell-based, A/WSN/1933 (H1N1)
[13] = tested on: nuclear export of NP-mRFP-Flag; assay: in vitro nuclear export assay, digitonin-permeabilized HeLa cells; format: cell-based; settings: with HeLa cell lysate, 42% with lysate alone
Method: HeLa cells were attached to glass cover slips at 37°C for 24 h and then transiently transfected with NP-mRFP-Flag/pCAGGS. After 48 h, cells were washed twice with cold transport buffer (20 mM HEPES (pH 7.4), 110 mM potassium acetate, 2 mM magnesium acetate, 1 mM EGTA (pH 7.4), 2 mM DTT, 1 μg/mL aprotinin, 1 μg/mL leupeptin, and 1 μg/mL pepstatin) and permeabilized with digitonin (50 μg/mL; Sigma) in transport buffer for 5 min on ice. The cells were then washed with cold transport buffer and incubated with apyrase (10 U/mL; Sigma) for 5 min on ice. After washing twice with cold transport buffer, the cells were incubated in cold transport buffer for 10 min on ice before addition of a the reaction mixture (40 μg HeLa cell lysate, 10 mg/mL bovine serum albumin (BSA), 10 mM ATP, 5 mM creatine phosphate, 0.64 U creatine kinase) containing (or not) the test compounds. The mixture was the incubated at 30°C for 1 h. After washing three times with cold transport buffer, mRFP fluorescence was observed under a confocal laser scanning microscope (FV 1000; Olympus). The fluorescence intensity in the nuclei was analyzed with MetaMorph software (Molecular Devices Inc., Downingtown, PA). The fluorescence intensity of NP-mRFP-Flag was quantified in >100 nuclei in each of three independent experiments.

[14] = tested on: influenza A/WSN/1933 (H1N1) virus; set-up: species or system Balb/c mice; settings: mouse, in vivo
[15] = tested on: A/Ontario/6118/1968 (H8N4); assay: microbe, parasite or virus in culture; format: cell-based; settings: Influenza A virus, H8N4, MDCK
[16] = MDCK, read-out: IC50 (SAR analysis of RK424)

CRM1 binding to NP, sequence (P15682 whole entry, looked up): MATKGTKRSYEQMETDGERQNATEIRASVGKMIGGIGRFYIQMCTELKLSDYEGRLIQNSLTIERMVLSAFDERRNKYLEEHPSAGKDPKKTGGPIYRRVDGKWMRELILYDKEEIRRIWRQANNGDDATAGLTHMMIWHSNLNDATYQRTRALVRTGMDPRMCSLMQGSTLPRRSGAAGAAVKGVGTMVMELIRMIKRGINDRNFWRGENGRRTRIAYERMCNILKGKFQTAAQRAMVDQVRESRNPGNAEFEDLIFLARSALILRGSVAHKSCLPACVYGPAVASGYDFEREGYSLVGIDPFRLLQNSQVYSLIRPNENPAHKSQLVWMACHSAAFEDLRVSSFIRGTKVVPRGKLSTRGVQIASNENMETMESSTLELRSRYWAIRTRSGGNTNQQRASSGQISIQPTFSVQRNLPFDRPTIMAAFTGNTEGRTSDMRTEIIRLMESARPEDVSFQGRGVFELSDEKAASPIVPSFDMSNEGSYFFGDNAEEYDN
vRNP activity, sequence (P15682 whole entry, looked up): as above
NP, sequence (P15682 whole entry, looked up): as above
NP-NP interaction, sequence (P15682 whole entry, looked up): as above
vRNA-induced NP oligomerization, sequence (P15682 whole entry, looked up): as above
NP-Flag, sequence (P15682 whole entry, looked up): as above
NP-RNA interaction, sequence (P15682 whole entry, looked up): as above

Compound: NC(=O)c1cc(-c2ccc(-c3ccccc3)cc2)nc2ccccc12 [Analog #1]
- antiviral effect relative to RK424 (SAR, in words) (A/WSN/1933 (H1N1) virus): partial reduction in the antiviral effect
- IC50 (A/WSN/1933 (H1N1) virus; [16]): 10100 ± 2070 nM
- CC50 (in vitro): > 10000 nM

Compound: O=C(O)c1cc(N2CCN(c3ccccc3)CC2)nc2ccccc12 [Analog #2]
- antiviral effect relative to RK424 (SAR, in words) (A/WSN/1933 (H1N1) virus): complete loss of antiviral activity
- IC50 (A/WSN/1933 (H1N1) virus; [16]): > 30000 nM
- CC50 (in vitro): > 10000 nM

Compound: O=C(O)c1ccnc(-c2ccc(-c3ccccc3)cc2)c1 [Analog #3]
- antiviral effect relative to RK424 (SAR, in words) (A/WSN/1933 (H1N1) virus): complete loss of antiviral activity
- IC50 (A/WSN/1933 (H1N1) virus; [16]): > 30000 nM
- CC50 (in vitro): > 10000 nM

Compound: O=C(O)c1cc(-c2ccc(Oc3ccccc3)cc2)nc2ccccc12 [Analog #4]
- antiviral effect relative to RK424 (SAR, in words) (A/WSN/1933 (H1N1) virus): antiviral effect comparable with that of RK424
- IC50 (A/WSN/1933 (H1N1) virus; [16]): 430 ± 150 nM
- CC50 (in vitro): > 10000 nM

Compound: NC(=O)c1nc(F)c[nH]c1=O [Analog T-705, favipiravir]
- recovery from morbidity, of that of the negative control group [1]: 20%
- viral titers in the lung [1]: 3.50 log10 PFU/mL

Compound: Cc1onc(-c2ccccc2)c1C(=O)N1CCN(c2ccc([N+](=O)[O-])cc2Cl)CC1 [Nucleozin, nucleozin, reference compound]
- IC50 [2]: 0.2 ± 0.03 µM

Compound: O=C(O)c1cc(-c2ccc(-c3ccccc3)cc2)nc2ccccc12 [RK424]
- IC50 (A/Udorn/307/1972 (H3N2)): 490 ± 190 nM
- IC90 (A/Udorn/307/1972 (H3N2)): 1230 ± 240 nM
- binding of wild-type NP-Flag to RK424 beads (NP-Flag): bound to RK424 beads but not to control beads
- IC50 [3]: 400 ± 70 nM
- IC90 [3]: 880 ± 20 nM
- IC50 (A/Anhui/1/2013(H7N9)): 600 ± 120 nM
- IC90 (A/Anhui/1/2013(H7N9)): 1140 ± 260 nM
- Cmax relative to the in vitro IC50 concentration (Cmax 39200 ng/mL vs 162.7 ng/mL): more than 200 times
- bioavailability via the oral route relative to the intraperitoneal route, lower by (mice, 10 mg/kg): 50%
- free drug maximum concentration (Cfree max) (mice, intravenous 1 mg/kg, plasma): 11.4 ng/mL
- free drug maximum concentration (Cfree max) (mice, oral route 10 mg/kg): 46.4 ng/mL
- free drug maximum concentration (Cfree max) (mice, context intraperitoneal 10 mg/kg): 156.8 ng/mL
- IC50 (A/Germany/N/1949 (H10N7)): 580 ± 140 nM
- IC90 (A/Germany/N/1949 (H10N7)): 1090 ± 80 nM
- antiviral effect by time of addition [4]: prominent antiviral effect at an early stage in the virus life cycle
- viral protein expression (western blotting) (viral protein expression): reduction in viral protein expression
- IC50 [5]: 620 ± 230 nM
- IC90 [5]: 1510 ± 870 nM
- luciferase activity (vRNP activity) (vRNP activity): notable and dose-dependent reduction in luciferase activity
- binding of NP-HA to NP-mRFP-Flag beads (NP-NP interaction): inhibited the binding of NP-HA to NP-mRFP-Flag beads in a dose-dependent manner
- RNA binding, less than control samples (NP-RNA interaction): ~50%
- plaque formation (number and size) (A/WSN/1933 (H1N1) virus): reduction in the number, but not the size, of viral plaques
- IC50 (A/WSN/1933 (H1N1) virus; MDCK): 480 ± 190 nM
- IC90 (A/WSN/1933 (H1N1) virus; MDCK): 1190 ± 360 nM
- IC50 (A/WSN/1933 (H1N1) virus; read-out: IC50 expressed as ng/mL): 163 ng/mL
- IC90 (A/WSN/1933 (H1N1) virus; read-out: IC90 expressed as ng/mL): 390 ng/mL
- IC50 [2]: 0.38 ± 0.04 µM
- NP localization in virus-infected HeLa cells (NP): nuclear rather than cytoplasmic localization of NP
- binding of CRM1 to NP-Flag beads (CRM1 binding to NP): binding was inhibited
- drug free from plasma protein [6]: 0.4%
- plasma protein binding ([6]; 50 μM, 37°C 30 min): 99.6%
- IC50 [7]: 420 ± 60 nM
- IC90 [7]: 950 ± 10 nM
- Vd (in vivo): 0.583 L/kg
- Cmax (in vivo; ip): 39200 ng/mL
- IC50 [8]: 590 ± 90 nM
- IC90 [8]: 1590 ± 120 nM
- rate of NP oligomerization [9]: dose-dependent reduction in the rate of oligomerization
- IC50 [10]: 570 ± 40 nM
- IC90 [10]: 930 ± 20 nM
- CC50 (in vitro): ≥ 50000 nM
- effect on viral replication when added prior to virus inoculation [11]: did not interfere with viral replication
- IC50 (A/England/1/1956 (H11N6)): 570 ± 160 nM
- IC90 (A/England/1/1956 (H11N6)): 940 ± 20 nM
- IC50 (A/Tex/131 (H3N2)): 590 ± 130 nM
- IC90 (A/Tex/131 (H3N2)): 980 ± 20 nM
- vRNA expression (FISH) [12]: significant reduction in vRNA expression
- mRFP fluorescence intensity in the nucleus, % of buffer-treated cells ([13]; 2 μM): 76%
- mRFP fluorescence intensity in the nucleus, % of buffer-treated cells ([13]; 10 μM): 134%
- body weight change (in words) [14]: lost less weight
- reduction in the virus titer in the lung compared with controls [14]: ~ 2 log
- virus titer in the lungs [14]: 2.9×10^3 PFU/mL
- IC50 [15]: 490 ± 40 nM
- IC90 [15]: 910 ± 20 nM

Compound: CCC(=C/[C@H](C)C/C=C/C(C)=C/[C@@H](C)C(=O)[C@@H](C)[C@H](O)[C@@H](C)C/C(C)=C/C(=O)O)/C=C/[C@@H]1OC(=O)C=C[C@@H]1C [leptomycin B, reference compound]
- binding of CRM1 to NP-Flag beads (CRM1 binding to NP): binding was inhibited
- mRFP fluorescence intensity in the nucleus, % of buffer-treated cells ([13]; concentration not given): 97%

Compound: CCOC(=O)C1=C[C@@H](OC(CC)CC)[C@H](NC(C)=O)[C@@H](N)C1 [oseltamivir phosphate, reference compound]
- luciferase activity (vRNP activity) (vRNP activity): did not significantly inhibit luciferase activity
- NP localization in virus-infected HeLa cells (NP): NP localized in both the nucleus and cytoplasm
- body weight change (in words) [14]: no weight loss
